# Data published in the supplement of paper PMC4862054.
# Tested on: MFM-223
# Conditions: 72 h
# Outline: (§1)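 Breast cancer cell lines in 20 µl suspension were seeded onto 384-well plates that already held compound dissolved in 5 µl medium and were incubated for 72 h. Viability was measured by adding 2.5 µl CellTiter-Blue for 2 h at 37 °C and reading fluorescence at 560/590 nm. Each plate was normalised to vehicle and a positive kill control and checked by Z'-factor. EC50 was taken from a fitted percent-inhibition dose-response curve, censored at the highest concentration, and rows with a drug sensitivity score of zero were removed.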
row,SMILES,"EC50, CellTiter-Blue viability [nM]"
1,COc1cc2nccc(Oc3ccc(NC(=O)Nc4cc(C)on4)c(Cl)c3)c2cc1OC [Tivozanib],344
2,Nc1ccccc1NC(=O)c1ccc(CNC(=O)OCc2cccnc2)cc1 [Entinostat],2710
3,C=CC(=O)Nc1cc2c(Nc3ccc(F)c(Cl)c3)ncnc2cc1OCCCN1CCOCC1 [Canertinib],3020
4,CCCCC(=O)OCC(=O)[C@]1(O)Cc2c(O)c3c(c(O)c2[C@@H](O[C@H]2C[C@H](NC(=O)C(F)(F)F)[C@H](O)[C@H](C)O2)C1)C(=O)c1c(OC)cccc1C3=O [Valrubicin],2810

# Tested on: Hs578T
# Conditions: 72 h
# Outline: as §1
row,SMILES,"EC50, CellTiter-Blue viability [nM]"
1,O=C(/C=C/c1cccnc1)NCCCCC1CCN(C(=O)c2ccccc2)CC1 [FK-866],3.75
2,CC[C@@H]1C(=O)N(C)c2cnc(Nc3ccc(C(=O)NC4CCN(C)CC4)cc3OC)nc2N1C1CCCC1 [BI 2536],10.5
3,CCCS(=O)(=O)Nc1ccc(F)c(C(=O)c2c[nH]c3ncc(-c4ccc(Cl)cc4)cc23)c1F [Vemurafenib],9430
4,CCN(CC)CCCC(C)Nc1c2ccc(Cl)cc2nc2ccc(OC)cc12 (configuration not stated) [Mepacrine],1980
5,Cc1cnc(NC(=O)Nc2cc(Br)c(C)cc2OC[C@@H]2CNCCO2)cn1,745
6,COc1cc2nccc(Oc3ccc(NC(=O)Nc4cc(C)on4)c(Cl)c3)c2cc1OC [Tivozanib],4590
7,Nc1ccccc1NC(=O)c1ccc(CNC(=O)OCc2cccnc2)cc1 [Entinostat],5880
8,C=CC(=O)Nc1cc2c(Nc3ccc(F)c(Cl)c3)ncnc2cc1OCCCN1CCOCC1 [Canertinib],3700
9,CCCCC(=O)OCC(=O)[C@]1(O)Cc2c(O)c3c(c(O)c2[C@@H](O[C@H]2C[C@H](NC(=O)C(F)(F)F)[C@H](O)[C@H](C)O2)C1)C(=O)c1c(OC)cccc1C3=O [Valrubicin],1230

# Tested on: BT-474
# Conditions: 72 h
# Outline: as §1
row,"EC50, CellTiter-Blue viability [nM]",SMILES
1,17.5,O=C(/C=C/c1cccnc1)NCCCCC1CCN(C(=O)c2ccccc2)CC1 [FK-866]
2,1760,CCN(CC)CCCC(C)Nc1c2ccc(Cl)cc2nc2ccc(OC)cc12 (configuration not stated) [Mepacrine]
3,14.7,C=CC(=O)N1CCC[C@@H](n2nc(-c3ccc(Oc4ccccc4)cc3)c3c(N)ncnc32)C1
4,2500,COc1cc2nccc(Oc3ccc(NC(=O)Nc4cc(C)on4)c(Cl)c3)c2cc1OC [Tivozanib]
5,3520,Nc1ccccc1NC(=O)c1ccc(CNC(=O)OCc2cccnc2)cc1 [Entinostat]
6,110,C=CC(=O)Nc1cc2c(Nc3ccc(F)c(Cl)c3)ncnc2cc1OCCCN1CCOCC1 [Canertinib]
7,916,CCCCC(=O)OCC(=O)[C@]1(O)Cc2c(O)c3c(c(O)c2[C@@H](O[C@H]2C[C@H](NC(=O)C(F)(F)F)[C@H](O)[C@H](C)O2)C1)C(=O)c1c(OC)cccc1C3=O [Valrubicin]

# Tested on: BT-549
# Conditions: 72 h
# Outline: as §1
row,"EC50, CellTiter-Blue viability [nM]",SMILES
1,6.08,O=C(/C=C/c1cccnc1)NCCCCC1CCN(C(=O)c2ccccc2)CC1 [FK-866]
2,1.56,CC[C@@H]1C(=O)N(C)c2cnc(Nc3ccc(C(=O)NC4CCN(C)CC4)cc3OC)nc2N1C1CCCC1 [BI 2536]
3,3550,O=C(O)C(=O)O.[NH-][C@@H]1CCCC[C@H]1[NH-].[Pt+2] [Oxaliplatin]
4,1440,CCN(CC)CCCC(C)Nc1c2ccc(Cl)cc2nc2ccc(OC)cc12 (configuration not stated) [Mepacrine]
5,520,C[C@H]1C[C@@H]2[C@H]([C@@H](O)C[C@@]3(C)[C@H]2CC[C@]3(O)C(=O)CO)[C@@]2(C)C=CC(=O)C=C12 [Methylprednisolone]
6,7350,COc1cc2nccc(Oc3ccc(NC(=O)Nc4cc(C)on4)c(Cl)c3)c2cc1OC [Tivozanib]
7,2480,C=CC(=O)Nc1cc2c(Nc3ccc(F)c(Cl)c3)ncnc2cc1OCCCN1CCOCC1 [Canertinib]
8,2240,CC[C@H](Nc1ncnc2[nH]cnc12)c1nc2cccc(F)c2c(=O)n1-c1ccccc1 [CAL-101]
9,1090,CCCCC(=O)OCC(=O)[C@]1(O)Cc2c(O)c3c(c(O)c2[C@@H](O[C@H]2C[C@H](NC(=O)C(F)(F)F)[C@H](O)[C@H](C)O2)C1)C(=O)c1c(OC)cccc1C3=O [Valrubicin]

row,SMILES,"EC50, CellTiter-Blue viability [nM]"
1,C1CN1c1nc(N2CC2)nc(N2CC2)n1 [Triethylenemelamine],9400

# Tested on: HCC1937
# Conditions: 72 h
# Outline: as §1
row,"EC50, CellTiter-Blue viability [nM]",SMILES
1,1320,Nc1nc(F)nc2c1ncn2[C@@H]1O[C@H](CO)[C@@H](O)[C@@H]1O [Fludarabine]
2,80.3,O=C(/C=C/c1cccnc1)NCCCCC1CCN(C(=O)c2ccccc2)CC1 [FK-866]
3,3.79,CC[C@@H]1C(=O)N(C)c2cnc(Nc3ccc(C(=O)NC4CCN(C)CC4)cc3OC)nc2N1C1CCCC1 [BI 2536]
4,> 10000,N#Cc1ccc(C(c2ccc(C#N)cc2)n2cncn2)cc1 [Letrozole]
5,7820,CCCS(=O)(=O)Nc1ccc(F)c(C(=O)c2c[nH]c3ncc(-c4ccc(Cl)cc4)cc23)c1F [Vemurafenib]
6,4810,O=C(O)C(=O)O.[NH-][C@@H]1CCCC[C@H]1[NH-].[Pt+2] [Oxaliplatin]
7,519,CCN(CC)CCCC(C)Nc1c2ccc(Cl)cc2nc2ccc(OC)cc12 (configuration not stated) [Mepacrine]
8,329,Cc1ccc(-c2cc(C(F)(F)F)nn2-c2ccc(S(N)(=O)=O)cc2)cc1 [Celecoxib]
9,121,Cc1cnc(NC(=O)Nc2cc(Br)c(C)cc2OC[C@@H]2CNCCO2)cn1
10,1170,Nc1ccccc1NC(=O)c1ccc(CNC(=O)OCc2cccnc2)cc1 [Entinostat]
11,2250,C=CC(=O)Nc1cc2c(Nc3ccc(F)c(Cl)c3)ncnc2cc1OCCCN1CCOCC1 [Canertinib]

row,SMILES,"EC50, CellTiter-Blue viability [nM]"
1,Oc1ncc(N(CCCl)CCCl)c(O)n1 [Uracil mustard],962
